Assay results taken from PubChem BioAssay AID1963862 (Molecular Pharmacology Branch, DTP, NCI, 2024).

System: KRAS patient-derived spheroids with HUVEC/MSC, viability
Assay: Anticancer human tumor 941728-121-R-J1-PDC patient-derived lung adenocarcinoma cell line growth inhibition [KRAS2]
Settings: for IC50: curve of first compound; for viability, T/C: stronger effect = lower value
From the text: Multicellular complex tumor spheroid response to RAS pathway inhibitors in combination with a targeted agents in patient-derived cell lines with oncogenic KRAS variants from multiple cancer types
A high-throughput screen of multi-cell type tumor spheroids was designed to identify active combinations of targeted small molecules and KRAS pathway inhibitors. Complex spheroids include a stromal component modeled by human endothelial cells (HUVEC) and fibroblasts modeled by human mesenchymal stem cells (MSCs). The concentration ranges selected for each drug and investigational agent were based upon clinically achievable concentrations if the clinical Cmax of the agent was known.
Compounds. The drugs and investigational agents: BI-3406 (NSC825286), BAY-293 (NSC824723), batoprotafib (TNO155; NSC825523), sotorasib (AMG 510; NSC818433), MRTX1257 (NSC819558), elimusertib (BAY 1895344; NSC800525), molibresib (GSK525762; NSC774829), temuterkib (LY3214996; NSC803410), venetoclax (NSC766270), alisertib (NSC759677), olaparib (NSC753686), talazoparib (NSC767125), erdafitinib (NSC781556), ipatasertib (NSC767898), cabozantinib (NSC761068), nintedanib (NSC756659), abemaciclib (NSC768073), docetaxel (NSC628503), trametinib (NSC758246), and sapanisertib (NSC764658) were obtained from the National Cancer Institute (NCI) Developmental Therapeutics Program Chemical Repository. The FDA-approved anticancer drug set is available from the Developmental Therapeutics Program. […] The stock solutions were prepared in dimethyl sulfoxide (DMSO, Sigma-Aldrich, St. Louis, MO, cat. D2650) at 800-fold the tested concentration and stored at -70 degrees C prior to their use. All drugs and investigational agents were tested over a range starting from a high concentration at or near the clinical Cmax and decreasing in half-log increments. If the clinical Cmax for an agent had not been determined, the highest concentration tested was 10 microM.
Cell Culture. All cells were maintained in an incubator at 37 degrees C and 5% CO2 with 95% humidity. The PDC lines were cultured according to standard operating procedures established by the NCI PDMR (https://pdmr.cancer.gov/sops/default.htm). Briefly, all PDCs were thawed and cultured in Matrigel-coated flasks prepared with a working solution of 1X Ham's F-12 nutrient mix, without supplementation (Invitrogen, Waltham, MA, cat. 11765054), 100 U/mL penicillin-streptomycin (Invitrogen, cat. 15140122), and 2.5% Matrigel (Corning Inc., Corning, NY, cat. 354248) for the first three passages. All PDCs were cultured in complete DMEM/F-12 media containing advanced DMEM/F-12 (Invitrogen, cat. 12634028), 4.9% defined fetal bovine serum, heat inactivated (HyClone Laboratories Inc., Logan, UT, cat. SH30070.03HI), 389 ng/mL hydrocortisone (Sigma-Aldrich, cat. H4001), 9.7 ng/mL human EGF recombinant protein (Invitrogen, cat. PHG0313), 23.4 microg/mL adenine (Sigma-Aldrich, cat. A2786), 97.3 U/mL penicillin-streptomycin (Invitrogen, cat. 15140122), 1.9 mM L-glutamine (Invitrogen, cat. 25030081), and 9.7 microM Y-27632 dihydrochloride (Tocris Bioscience, Bristol, United Kingdom, cat. 1254). The PDCs were cultured in complete DMEM/F12 media without 9.7 microM Y-27632 dihydrochloride for at least two passages prior to the screen. The established cell line HOP-62 was cultured in RPMI 1640 medium, HEPES (Invitrogen, cat. 22400105) with 10% defined fetal bovine serum (HyClone Laboratories Inc., cat. SH30070.03) and 2 mM L-glutamine (Invitrogen, cat. 25030081). The pooled donor HUVEC were cultured in endothelial cell growth medium 2 (PromoCell, Heidelberg, Germany, cat. C-22011) and the hMSC were cultured in mesenchymal stem cell growth medium 2 (PromoCell, cat. C-28009). For all experiments, HUVEC and hMSC were used at passages </=5, while the malignant cell lines were used at passages </=15. […]

[1] = second compound 0.1 µM, first compound 0.0316 µM
[2] = second compound 0.1 µM, first compound 0.1 µM
[3] = second compound 0.316 µM, first compound 0.0316 µM
[4] = second compound 0.316 µM, first compound 0.1 µM
[5] = second compound 1 µM, first compound 0.0316 µM
[6] = second compound 1 µM, first compound 0.1 µM
[7] = second compound 3.16 µM, first compound 0.0316 µM
[8] = second compound 3.16 µM, first compound 0.1 µM
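Also: spheroids exposed to agents for seven days before readout.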

CC(C)NCC(C(=O)N1CCN(c2ncnc3c2C(C)CC3O)CC1)c1ccc(Cl)cc1 (stereo unspecified) + COc1cc2nc(C)nc(NC(C)c3cc(N)cc(C(F)(F)F)c3)c2cc1OC1CCOC1
IC50 (second compound 0.1 µM): 32.7 nM
IC50 (second compound 0.316 µM): < 31.6 nM
IC50 (second compound 1 µM): < 31.6 nM
IC50 (second compound 3.16 µM): < 31.6 nM
IC50 (second compound 10 µM): < 31.6 nM
viability, T/C [1]: 49.7%
viability, T/C [2]: 46.5%
viability, T/C (second compound 0.1 µM, first compound 0.316 µM): 34.1%
viability, T/C (second compound 0.1 µM, first compound 1 µM): 23.4%
viability, T/C (second compound 0.1 µM, first compound 3.16 µM): 11.8%
viability, T/C (second compound 0.1 µM, first compound 10 µM): 8.21%
viability, T/C [3]: 44%
viability, T/C [4]: 41.4%
viability, T/C (second compound 0.316 µM, first compound 0.316 µM): 32.5%
viability, T/C (second compound 0.316 µM, first compound 1 µM): 21.5%
viability, T/C (second compound 0.316 µM, first compound 3.16 µM): 10.3%
viability, T/C (second compound 0.316 µM, first compound 10 µM): 11.1%
viability, T/C [5]: 40.4%
viability, T/C [6]: 34.8%
viability, T/C (second compound 1 µM, first compound 0.316 µM): 29.7%
viability, T/C (second compound 1 µM, first compound 1 µM): 23.1%
viability, T/C (second compound 1 µM, first compound 3.16 µM): 10.3%
viability, T/C (second compound 1 µM, first compound 10 µM): 1.68%
viability, T/C [7]: 35.1%
viability, T/C [8]: 35.2%
viability, T/C (second compound 3.16 µM, first compound 0.316 µM): 36.7%
viability, T/C (second compound 3.16 µM, first compound 1 µM): 13%
viability, T/C (second compound 3.16 µM, first compound 3.16 µM): 5.96%
viability, T/C (second compound 3.16 µM, first compound 10 µM): 5.42%
viability, T/C (second compound 10 µM, first compound 0.0316 µM): 13.4%
viability, T/C (second compound 10 µM, first compound 0.1 µM): 9.39%
viability, T/C (second compound 10 µM, first compound 0.316 µM): 3.04%
viability, T/C (second compound 10 µM, first compound 1 µM): 1.04%
viability, T/C (second compound 10 µM, first compound 3.16 µM): 0.52%
viability, T/C (second compound 10 µM, first compound 10 µM): 0.66%

CC(C)n1nc(-c2ccc3oc(N)nc3c2)c2c(N)ncnc21 + C=CC(=O)N1CCN(c2nc(OCC3CCCN3C)nc3c2CCN(c2cccc4cccc(C)c24)C3)CC1CC#N
IC50 (second compound 0.0316 µM): < 0.316 nM
IC50 (second compound 0.1 µM): < 0.316 nM
IC50 (second compound 0.316 µM): < 0.316 nM
IC50 (second compound 1 µM): < 0.316 nM
IC50 (second compound 3.16 µM): < 0.316 nM
viability, T/C (second compound 0.0316 µM, first compound 0.000316 µM): 35.4%
viability, T/C (second compound 0.0316 µM, first compound 0.001 µM): 32.9%
viability, T/C (second compound 0.0316 µM, first compound 0.00316 µM): 24.6%
viability, T/C (second compound 0.0316 µM, first compound 0.01 µM): 17.3%
viability, T/C (second compound 0.0316 µM, first compound 0.0316 µM): 11.5%
viability, T/C (second compound 0.0316 µM, first compound 0.1 µM): 11%
viability, T/C (second compound 0.1 µM, first compound 0.000316 µM): 35.3%
viability, T/C (second compound 0.1 µM, first compound 0.001 µM): 28.8%
viability, T/C (second compound 0.1 µM, first compound 0.00316 µM): 28%
viability, T/C (second compound 0.1 µM, first compound 0.01 µM): 15.9%
viability, T/C [1]: 11.1%
viability, T/C [2]: 12.5%
viability, T/C (second compound 0.316 µM, first compound 0.000316 µM): 38.2%
viability, T/C (second compound 0.316 µM, first compound 0.001 µM): 33.9%
viability, T/C (second compound 0.316 µM, first compound 0.00316 µM): 26.6%
viability, T/C (second compound 0.316 µM, first compound 0.01 µM): 16.8%
viability, T/C [3]: 13%
viability, T/C [4]: 9.77%
viability, T/C (second compound 1 µM, first compound 0.000316 µM): 33.1%
viability, T/C (second compound 1 µM, first compound 0.001 µM): 29%
viability, T/C (second compound 1 µM, first compound 0.00316 µM): 20%
viability, T/C (second compound 1 µM, first compound 0.01 µM): 11.9%
viability, T/C [5]: 9.99%
viability, T/C [6]: 10.3%
viability, T/C (second compound 3.16 µM, first compound 0.000316 µM): 2.26%
viability, T/C (second compound 3.16 µM, first compound 0.001 µM): 0.92%
viability, T/C (second compound 3.16 µM, first compound 0.00316 µM): 0.32%
viability, T/C (second compound 3.16 µM, first compound 0.01 µM): 0.8%
viability, T/C [7]: 0.12%
viability, T/C [8]: 0.23%

CC(=O)OC12COC1CC(O)C1(C)C(=O)C(O)C3=C(C)C(OC(=O)C(O)C(NC(=O)OC(C)(C)C)c4ccccc4)CC(O)(C(OC(=O)c4ccccc4)C21)C3(C)C (stereo unspecified)
viability, T/C (compound 0.01 µM): 53% [middle of 5 runs]
viability, T/C (compound 0.0316 µM): 46.3% [middle of 5 runs]
viability, T/C (compound 0.1 µM): 46.2% [middle of 5 runs]
viability, T/C (compound 0.316 µM): 46.5% [middle of 5 runs]
viability, T/C (compound 1 µM): 53.8% [middle of 5 runs]
viability, T/C (compound 3.16 µM): 55.1% [middle of 5 runs]
